Reference: paper PMC11995724, “Antibiotic target discovery by integrated phenotypic and activity-based profiling of electrophilic fragments” (Cell chemical biology, 2025)

Test: in vitro
Conditions: human, hek293t cells
Work on C=CC(=O)NCc1cn([C@@H]2COC[C@H]2OC)nn1 [1-J17, N-({1-[(3R,4S)-4-methoxyoxolan-3-yl]-1H-1,2,3-triazol-4-yl}methyl)prop-2-enamide] yielded a viability at 48 h, 25 µM of 96.5%. Work on CC(Cl)C(=O)N1CCCc2c1ccnc2N(C)C (stereo not drawn) [6-D14, 2-chloro-1-[5-(dimethylamino)-1,2,3,4-tetrahydro-1,6-naphthyridin-1-yl]propan-1-one] yielded a viability at 48 h, 25 µM of 109%. With C=CC(=O)NCC1(c2ccccc2)CC1(F)F (stereo not drawn) [2-O20, N-[(2,2-difluoro-1-phenylcyclopropyl)methyl]prop-2-enamide] the viability at 48 h, 25 µM was 113%. For N#CC(=Cc1cc([N+](=O)[O-])ccc1Cl)C(N)=O [8-F21, 3-(2-chloro-5-nitrophenyl)-2-cyanoprop-2-enamide], the viability at 48 h, 25 µM was 101%. Work on CC(Cl)C(=O)N(C)Cc1ncc(C2CC2)o1 (stereo not drawn) [5-B22, 2-chloro-N-[(5-cyclopropyl-1,3-oxazol-2-yl)methyl]-N-methylpropanamide] yielded a viability at 48 h, 25 µM of 66.9%. Cc1coc(C)c1C(=O)CCl [10-M11, 2-chloro-1-(2,4-dimethylfuran-3-yl)ethan-1-one] gave a viability at 48 h, 25 µM of 72.9%. Molecule CN(C)S(=O)(=O)c1ccc(NC(=O)CCl)cc1 [5-J11, 2-chloro-N-[4-(dimethylsulfamoyl)phenyl]acetamide] has a viability at 48 h, 25 µM of 1.08%. Molecule C=CC(=O)NCCC(=O)Nc1nc2n(n1)CCCC2 [2-M14, N-[2-({5H,6H,7H,8H-[1,2,4]triazolo[1,5-a]pyridin-2-yl}carbamoyl)ethyl]prop-2-enamide] has a viability at 48 h, 25 µM of 109%. C=CC(=O)N1CCC(C(O)c2ccnn2C)CC1 (stereo not drawn) [3-K03, 1-{4-[hydroxy(1-methyl-1H-pyrazol-5-yl)methyl]piperidin-1-yl}prop-2-en-1-one] gave a viability at 48 h, 25 µM of 59%. Work on CC(Cl)C(=O)N1CCN(Cc2ccnn2C)CC1 (stereo not drawn) [7-I22, 2-chloro-1-{4-[(1-methyl-1H-pyrazol-5-yl)methyl]piperazin-1-yl}propan-1-one] yielded a viability at 48 h, 25 µM of 99.9%. Work on C=CC(=O)N1CCC(C(=O)N2CCCC(NC(=O)C(C)(C)C)C2)CC1 (stereo not drawn) [2-F05, 2,2-dimethyl-N-{1-[1-(prop-2-enoyl)piperidine-4-carbonyl]piperidin-3-yl}propanamide] yielded a viability at 48 h, 25 µM of 75.6%. C=CC(=O)NCC1CCCN1S(=O)(=O)CC (stereo not drawn) [3-F19, N-{[1-(ethanesulfonyl)pyrrolidin-2-yl]methyl}prop-2-enamide] gave a viability at 48 h, 25 µM of 68.6%. O=C(CCl)N1C2CCC1c1ccccc12 [5-M11, 1-{11-azatricyclo[6.2.1.0,2,7]undeca-2,4,6-trien-11-yl}-2-chloroethan-1-one] showed a viability at 48 h, 25 µM of -0.105%. N#CC(=Cc1cn2cc(Cl)ccc2n1)C(=O)NC1CCCC1 [9-P15, 3-{6-chloroimidazo[1,2-a]pyridin-2-yl}-2-cyano-N-cyclopentylprop-2-enamide] showed a viability at 48 h, 25 µM of 120%. Cc1ccc(C)c(NC(=O)CN(C)C(=O)CCl)c1 [6-N04, 2-chloro-N-{[(2,5-dimethylphenyl)carbamoyl]methyl}-N-methylacetamide] gave a viability at 48 h, 25 µM of 0.906%. Molecule CC(Cl)C(=O)N(c1cccc(C#N)c1)C1CCC1 (stereo not drawn) [6-N22, 2-chloro-N-(3-cyanophenyl)-N-cyclobutylpropanamide] has a viability at 48 h, 25 µM of 90.1%. Work on C=CC(=O)NCc1cc(Cl)c2c(c1)OCO2 [2-F15, N-[(7-chloro-1,3-dioxaindan-5-yl)methyl]prop-2-enamide] yielded a viability at 48 h, 25 µM of 50.9%. Work on CCC(=O)N1CCc2cc(C(=O)CCl)ccc21 [10-C22, 1-[5-(2-chloroacetyl)-2,3-dihydro-1H-indol-1-yl]propan-1-one] yielded a viability at 48 h, 25 µM of 90.5%. Cc1ccccc1NC(=O)C(C#N)=Cc1cc2c(cc1[N+](=O)[O-])OCO2 [9-P11, 2-cyano-N-(2-methylphenyl)-3-(6-nitro-1,3-dioxaindan-5-yl)prop-2-enamide] gave a viability at 48 h, 25 µM of 120%. In the case of C=CC(=O)N(Cc1cc(-c2ccco2)n(C)n1)C1CCCCC1 [1-J15, N-cyclohexyl-N-{[5-(furan-2-yl)-1-methyl-1H-pyrazol-3-yl]methyl}prop-2-enamide], the viability at 48 h, 25 µM is reported as 83.8%. CC(Cl)C(=O)NCC1CCCCC1 (stereo not drawn) [4-I10, 2-chloro-N-(cyclohexylmethyl)propanamide] showed a viability at 48 h, 25 µM of 90.9%.
